Reference: ChEMBL document CHEMBL1152321, “Recent advances in the chemistry and biology of new generation taxoids” (J Nat Prod, 2009)

What was measured:
[1] = Resistance factor, ratio of IC50 for human LCC-6 cells expressing P-glycoprotein to IC50 for P-glycoprotein deficient wild type human LCC-6 cells; type: functional; design: reference not given here
MCF7 [2] = experiment: Resistance factor, ratio of IC50 for human MCF7 cells expressing P-glycoprotein to IC50 for P-glycoprotein deficient wild type human MCF7 cells; type: functional
[3] = Cytotoxicity against human LCC-6 cells expressing P-glycoprotein after 72 hrs; type: functional, cell-based; details: LCC-6, 72 h
HT-29 = experiment: Cytotoxicity against human HT-29 cells after 72 hrs; type: functional, cell-based; details: HT-29, 72 h
NCI-H460 = experiment: Cytotoxicity against human H460 cells after 72 hrs; type: functional, cell-based; details: NCI-H460, 72 h
[4] = Cytotoxicity against P-glycoprotein deficient wild type human LCC-6 cells after 72 hrs; type: functional, cell-based; details: LCC-6, 72 h
MCF7 [5] = experiment: Cytotoxicity against P-glycoprotein deficient wild type human MCF7 cells after 72 hrs; type: functional, cell-based; details: MCF7, 72 h
MCF7 [6] = experiment: Cytotoxicity against human MCF7 cells expressing P-glycoprotein after 72 hrs; type: functional, cell-based; details: MCF7, 72 h

## COC(=O)O[C@H]1C(=O)[C@@]2(C)[C@H]([C@H](OC(=O)c3cccc(OC)c3)[C@]3(O)C[C@H](OC(=O)[C@H](O)[C@@H](NC(=O)OC(C)(C)C)C(F)F)C(C)=C1C3(C)C)[C@]1(OC(C)=O)CO[C@@H]1C[C@@H]2O
[1]
  Ratio: 9.9
MCF7 [2]
  Ratio: 8.1
[3]
  IC50: 10.2 nM
HT-29
  IC50: 0.44 nM
NCI-H460
  IC50: 0.3 nM
[4]
  IC50: 1.03 nM
MCF7 [5]
  IC50: 0.81 nM
MCF7 [6]
  IC50: 6.59 nM

## CC(=O)O[C@H]1C(=O)[C@@]2(C)[C@H]([C@H](OC(=O)c3cccc(Cl)c3)[C@]3(O)C[C@H](OC(=O)[C@H](O)[C@@H](NC(=O)OC(C)(C)C)C(F)(F)F)C(C)=C1C3(C)C)[C@]1(OC(C)=O)CO[C@@H]1C[C@@H]2O
[1]
  Ratio: 23
MCF7 [2]
  Ratio: 13
[3]
  IC50: 4.96 nM
HT-29
  IC50: 0.85 nM
NCI-H460
  IC50: 0.5 nM
[4]
  IC50: 0.22 nM
MCF7 [5]
  IC50: 0.4 nM
MCF7 [6]
  IC50: 5.04 nM

## COC(=O)O[C@H]1C(=O)[C@@]2(C)[C@H]([C@H](OC(=O)c3cccc(OC)c3)[C@]3(O)C[C@H](OC(=O)[C@H](O)[C@H](C=C(F)F)NC(=O)OC(C)(C)C)C(C)=C1C3(C)C)[C@]1(OC(C)=O)CO[C@@H]1C[C@@H]2O
MCF7 [2]
  Ratio: 6.4
MCF7 [5]
  IC50: 0.078 nM
MCF7 [6]
  IC50: 0.5 nM

## CC(=O)O[C@@]12CO[C@@H]1C[C@H](O)[C@@]1(C)C(=O)[C@H](OC(=O)C3CC3)C3=C(C)[C@@H](OC(=O)[C@H](O)[C@H](C=C(F)F)NC(=O)OC(C)(C)C)C[C@@](O)([C@@H](OC(=O)c4cccc(N=[N+]=[N-])c4)[C@H]21)C3(C)C
MCF7 [2]
  Ratio: 4.9
MCF7 [5]
  IC50: 0.092 nM
MCF7 [6]
  IC50: 0.45 nM

## COC(=O)O[C@H]1C(=O)[C@@]2(C)[C@H]([C@H](OC(=O)c3cccc(N=[N+]=[N-])c3)[C@]3(O)C[C@H](OC(=O)[C@H](O)[C@@H](NC(=O)OC(C)(C)C)C(F)(F)F)C(C)=C1C3(C)C)[C@]1(OC(C)=O)CO[C@@H]1C[C@@H]2O
[1]
  Ratio: 3.7
MCF7 [2]
  Ratio: 6.2
[3]
  IC50: 4 nM
HT-29
  IC50: 0.4 nM
NCI-H460
  IC50: 0.2 nM
[4]
  IC50: 1.09 nM
MCF7 [5]
  IC50: 0.47 nM
MCF7 [6]
  IC50: 2.92 nM

## CCC(=O)O[C@H]1C(=O)[C@@]2(C)[C@H]([C@H](OC(=O)c3cccc(F)c3)[C@]3(O)C[C@H](OC(=O)[C@H](O)[C@@H](NC(=O)OC(C)(C)C)C(F)(F)F)C(C)=C1C3(C)C)[C@]1(OC(C)=O)CO[C@@H]1C[C@@H]2O
[1]
  Ratio: 5.2
MCF7 [2]
  Ratio: 5.6
[3]
  IC50: 4.27 nM
HT-29
  IC50: 1.15 nM
NCI-H460
  IC50: 0.59 nM
[4]
  IC50: 0.82 nM
MCF7 [5]
  IC50: 0.68 nM
MCF7 [6]
  IC50: 3.78 nM

## CCC(=O)O[C@H]1C(=O)[C@@]2(C)[C@H]([C@H](OC(=O)c3cccc(OC)c3)[C@]3(O)C[C@H](OC(=O)[C@H](O)[C@@H](NC(=O)OC(C)(C)C)C(F)(F)F)C(C)=C1C3(C)C)[C@]1(OC(C)=O)CO[C@@H]1C[C@@H]2O
[1]
  Ratio: 9
MCF7 [2]
  Ratio: 11
[3]
  IC50: 4.24 nM
HT-29
  IC50: 0.54 nM
NCI-H460
  IC50: 0.41 nM
[4]
  IC50: 0.45 nM
MCF7 [5]
  IC50: 0.19 nM
MCF7 [6]
  IC50: 2.16 nM

## CCC(=O)O[C@H]1C(=O)[C@@]2(C)[C@H]([C@H](OC(=O)c3cccc(OC)c3)[C@]3(O)C[C@H](OC(=O)[C@H](O)[C@H](C=C(F)F)NC(=O)OC(C)(C)C)C(C)=C1C3(C)C)[C@]1(OC(C)=O)CO[C@@H]1C[C@@H]2O
MCF7 [2]
  Ratio: 1.7
MCF7 [5]
  IC50: 0.34 nM
MCF7 [6]
  IC50: 0.57 nM

## COc1cccc(C(=O)O[C@H]2[C@@H]3[C@]4(OC(C)=O)CO[C@@H]4C[C@H](O)[C@@]3(C)C(=O)[C@H](OC(=O)N(C)C)C3=C(C)[C@@H](OC(=O)[C@H](O)[C@@H](NC(=O)OC(C)(C)C)C(F)F)C[C@]2(O)C3(C)C)c1
[1]
  Ratio: 10
MCF7 [2]
  Ratio: 10
[3]
  IC50: 7.06 nM
HT-29
  IC50: 0.43 nM
NCI-H460
  IC50: 0.4 nM
[4]
  IC50: 0.69 nM
MCF7 [5]
  IC50: 0.45 nM
MCF7 [6]
  IC50: 4.51 nM

## COC(=O)O[C@H]1C(=O)[C@@]2(C)[C@H]([C@H](OC(=O)c3cccc(N=[N+]=[N-])c3)[C@]3(O)C[C@H](OC(=O)[C@H](O)[C@@H](NC(=O)OC(C)(C)C)C(F)F)C(C)=C1C3(C)C)[C@]1(OC(C)=O)CO[C@@H]1C[C@@H]2O
[1]
  Ratio: 7.9
MCF7 [2]
  Ratio: 1.5
[3]
  IC50: 2.06 nM
HT-29
  IC50: 0.36 nM
NCI-H460
  IC50: 0.23 nM
[4]
  IC50: 0.26 nM
MCF7 [5]
  IC50: 1.69 nM
MCF7 [6]
  IC50: 2.56 nM

## CC(=O)O[C@@]12CO[C@@H]1C[C@H](O)[C@@]1(C)C(=O)[C@H](OC(=O)c3cccc4ccccc34)C3=C(C)[C@@H](OC(=O)[C@H](O)[C@H](C=C(C)C)NC(=O)OC(C)(C)C)C[C@@](O)([C@@H](OC(=O)c4ccccc4)[C@H]21)C3(C)C
[1]
  Ratio: 2.9
[4]
  IC50: 5.3 nM

## COc1cccc(CC(=O)O[C@H]2C(=O)[C@@]3(C)[C@H]([C@H](OC(=O)c4ccccc4)[C@]4(O)C[C@H](OC(=O)[C@H](O)[C@H](C=C(C)C)NC(=O)OC(C)(C)C)C(C)=C2C4(C)C)[C@]2(OC(C)=O)CO[C@@H]2C[C@@H]3O)c1
[1]
  Ratio: 9.7
[4]
  IC50: 2.1 nM

## COc1ccc(CCC(=O)O[C@H]2C(=O)[C@@]3(C)[C@H]([C@H](OC(=O)c4ccccc4)[C@]4(O)C[C@H](OC(=O)[C@H](O)[C@H](C=C(C)C)NC(=O)OC(C)(C)C)C(C)=C2C4(C)C)[C@]2(OC(C)=O)CO[C@@H]2C[C@@H]3O)cc1
[1]
  Ratio: 2.9
[4]
  IC50: 1.7 nM

## COc1ccc(C(=O)O[C@H]2C(=O)[C@@]3(C)[C@H]([C@H](OC(=O)c4ccccc4)[C@]4(O)C[C@H](OC(=O)[C@H](O)[C@H](C=C(C)C)NC(=O)OC(C)(C)C)C(C)=C2C4(C)C)[C@]2(OC(C)=O)CO[C@@H]2C[C@@H]3O)cc1
[1]
  Ratio: 1.2
[4]
  IC50: 3.8 nM

## COc1cccc(C(=O)O[C@H]2[C@@H]3[C@]4(OC(C)=O)CO[C@@H]4C[C@H](O)[C@@]3(C)C(=O)[C@H](OC(=O)C3CC3)C3=C(C)[C@@H](OC(=O)[C@H](O)[C@H](C=C(C)C)NC(=O)OC(C)(C)C)C[C@]2(O)C3(C)C)c1
[1]
  Ratio: 2.9
[4]
  IC50: 1 nM

## COc1cccc(C(=O)O[C@H]2[C@@H]3[C@]4(OC(C)=O)CO[C@@H]4C[C@H](O)[C@@]3(C)C(=O)[C@H](OC(=O)C3CC3)C3=C(C)[C@@H](OC(=O)[C@H](O)[C@H](C=C(F)F)NC(=O)OC(C)(C)C)C[C@]2(O)C3(C)C)c1
MCF7 [2]
  Ratio: 5.2
MCF7 [5]
  IC50: 0.092 nM
MCF7 [6]
  IC50: 0.48 nM

## CC(=O)O[C@H]1C(=O)[C@@]2(C)[C@H]([C@H](OC(=O)c3cccc(N=[N+]=[N-])c3)[C@]3(O)C[C@H](OC(=O)[C@H](O)[C@H](C=C(F)F)NC(=O)OC(C)(C)C)C(C)=C1C3(C)C)[C@]1(OC(C)=O)CO[C@@H]1C[C@@H]2O
MCF7 [2]
  Ratio: 3.7
MCF7 [5]
  IC50: 0.092 nM
MCF7 [6]
  IC50: 0.34 nM

## COc1ccccc1CCC(=O)O[C@H]1C(=O)[C@@]2(C)[C@H]([C@H](OC(=O)c3ccccc3)[C@]3(O)C[C@H](OC(=O)[C@H](O)[C@H](C=C(C)C)NC(=O)OC(C)(C)C)C(C)=C1C3(C)C)[C@]1(OC(C)=O)CO[C@@H]1C[C@@H]2O
[1]
  Ratio: 3.3
[4]
  IC50: 1.5 nM

## CC(=O)O[C@@]12CO[C@@H]1C[C@H](O)[C@@]1(C)C(=O)[C@H](O)C3=C(C)[C@@H](OC(=O)[C@H](O)[C@@H](NC(=O)OC(C)(C)C)c4ccccc4)C[C@@](O)([C@@H](OC(=O)c4ccccc4)[C@H]21)C3(C)C.O.O.O [DOCETAXEL]
HT-29
  IC50: 1 nM
[4]
  IC50: 1 nM
MCF7 [6]
  IC50: 215 nM

## CC(=O)O[C@@]12CO[C@@H]1C[C@H](O)[C@@]1(C)C(=O)[C@H](OC(=O)c3ccccc3)C3=C(C)[C@@H](OC(=O)[C@H](O)[C@H](C=C(C)C)NC(=O)OC(C)(C)C)C[C@@](O)([C@@H](OC(=O)c4ccccc4)[C@H]21)C3(C)C
[1]
  Ratio: 2.7
[4]
  IC50: 1.8 nM

## COc1cccc(CCC(=O)O[C@H]2C(=O)[C@@]3(C)[C@H]([C@H](OC(=O)c4ccccc4)[C@]4(O)C[C@H](OC(=O)[C@H](O)[C@H](C=C(C)C)NC(=O)OC(C)(C)C)C(C)=C2C4(C)C)[C@]2(OC(C)=O)CO[C@@H]2C[C@@H]3O)c1
[1]
  Ratio: 1.8
[4]
  IC50: 3.7 nM

## COC(=O)O[C@H]1C(=O)[C@@]2(C)[C@H]([C@H](OC(=O)c3cccc(N=[N+]=[N-])c3)[C@]3(O)C[C@H](OC(=O)[C@H](O)[C@H](C=C(F)F)NC(=O)OC(C)(C)C)C(C)=C1C3(C)C)[C@]1(OC(C)=O)CO[C@@H]1C[C@@H]2O
MCF7 [2]
  Ratio: 5.3
MCF7 [5]
  IC50: 0.078 nM
MCF7 [6]
  IC50: 0.4 nM

## COc1ccccc1C(=O)O[C@H]1C(=O)[C@@]2(C)[C@H]([C@H](OC(=O)c3ccccc3)[C@]3(O)C[C@H](OC(=O)[C@H](O)[C@H](C=C(C)C)NC(=O)OC(C)(C)C)C(C)=C1C3(C)C)[C@]1(OC(C)=O)CO[C@@H]1C[C@@H]2O
[1]
  Ratio: 2.7
[4]
  IC50: 2.1 nM

## CC(=O)O[C@@]12CO[C@@H]1C[C@H](O)[C@@]1(C)C(=O)[C@H](OC(=O)OCc3ccccc3)C3=C(C)[C@@H](OC(=O)[C@H](O)[C@H](C=C(C)C)NC(=O)OC(C)(C)C)C[C@@](O)([C@@H](OC(=O)c4ccccc4)[C@H]21)C3(C)C
[1]
  Ratio: 9.3
[4]
  IC50: 1.8 nM

## CCC(=O)O[C@H]1C(=O)[C@@]2(C)[C@H]([C@H](OC(=O)c3cccc(OC)c3)[C@]3(O)C[C@H](OC(=O)[C@H](O)[C@@H](NC(=O)OC(C)(C)C)C(F)F)C(C)=C1C3(C)C)[C@]1(OC(C)=O)CO[C@@H]1C[C@@H]2O
HT-29
  IC50: 0.59 nM
NCI-H460
  IC50: 0.4 nM
[4]
  IC50: 0.69 nM
MCF7 [5]
  IC50: 1.14 nM
MCF7 [6]
  IC50: 4.05 nM

## COc1ccccc1CC(=O)O[C@H]1C(=O)[C@@]2(C)[C@H]([C@H](OC(=O)c3ccccc3)[C@]3(O)C[C@H](OC(=O)[C@H](O)[C@H](C=C(C)C)NC(=O)OC(C)(C)C)C(C)=C1C3(C)C)[C@]1(OC(C)=O)CO[C@@H]1C[C@@H]2O
[1]
  Ratio: 6
[4]
  IC50: 2.3 nM
